Converted amounts (≈) assume the structure as drawn. Numbered stars: 1 amine (or outer) side, 2 acyl side, 3 side chain; on linkers, the order of the positions; unused ones are H or OH. Bridge positions count the residues as written; N and C are the ends. Square brackets hold non-standard residues; d marks the D form. Ends that are not written are not given here. TATA = O=C(CC[*:1])N1CN(C(=O)CC[*:2])CN(C(=O)CC[*:3])C1; fluorescein = label appended via Sar6-Lys linker; Sar = CNCC(=O)O
Assays:
E. coli (ATCC 25922) = test: MIC assay (10 μl), E. coli ATCC 25922; format: cell-based; conditions: Escherichia coli, ATCC25922
Description: (§1) Test compounds were dissolved at high concentration in the required solvent. Where DMSO was used to dissolve test compounds, a DMSO control with equivalent concentrations of DMSO was included for each test organism. For each test organism, a control antibiotic (for which susceptibility of the test organism was known) was tested in parallel. This allowed comparison of results between runs and validated the testing procedure and organism.
(§2) Using aseptic technique, serial 2-fold dilutions (across a 10 point range) of the test compounds were made in 5 μl of cation-adjusted Muller Hinton broth (CA-MHB), on the inverted lid of a 96-well plate. Inoculum for each test organism was made in phosphate-buffered saline (PBS) to match the turbidity of a 0.5 McFarland standard, and then diluted 100-fold. Each well (except negative control well) was inoculated with 5 μl of inoculum. For each test antibiotic, a negative control (no bacteria) was included, consisting of CA-MHB only; along with a positive control (no antibiotic) with CA-MHB and bacteria only. The base of the 96 well plate was used as a lid, and the plate was incubated inside a humidor to reduce evaporation. […] MIC was evaluated based on turbidity, using white light shone through the base of the plate to illuminate droplets.

E. Coli GKCW101 (WT) = test: MIC assay, E. coli GKCW101; format: cell-based; conditions: Escherichia coli
Description: (§3) Minimum inhibitory concentration (MIC) assays were carried out using E. coli strains from the Zgurskaya lab engineered to harbour an inducible pore to make the outer membrane permeable (Krishnamoorthy et al. (2016) doi: https://doi.org/10.1128/AAC.01882-16). Strains used: GKCW101; GKCW102; GKCW103; and GKCW104.
(§4) Overnight cultures of bacteria were first prepared by transferring a single bacterial colony into 5 mL cation-adjusted Mueller-Hinton broth (CA-MHB) supplemented with kanamycin at 50 μg/mL. The following day, overnight cultures were diluted 1/100 in 25 mL CA-MHB with 50 μg/mL kanamycin and cultured until the optical density reached 0.3 as measured on a spectrometer at 600 nm.
(§5) Filter-sterilised arabinose was then added to a concentration of 0.1% w/v and subsequently cultured until the optical density at 600 nm equalled to 1.
(§6) The cultured medium was then diluted to 1×10^6 CFU mL^−1 in CA-MHB supplemented with 0.1% w/v arabinose and 50 μg/mL kanamycin. […]
(§7) A maximum 8 μl of peptide ligand was then added into the wells of column 1 and diluted two-fold across the plate. […] The optical density at 600 nm was then measured for each of the wells using a PheraStar FSx plate reader. MIC values were determined as the cutoff concentration between visible growth and no growth of the bacteria.

[1] = tested on: S. typhimurium (ATCC 19585); test: MIC assay (10 μl), S. typhimurium; format: cell-based; conditions: Salmonella enterica
Description: as §1, §2

PBP3 of E. coli [2] = molecular target: T1, PBP3 of E. coli (Escherichia coli, UniProt P0AD68); test: Fluorescence polarisation competition binding assay Method 1 (BODIPY labelled penicillin tracer); conditions: competition with Bocillin (BODIPY-penicillin)
Description: Fluorescence polarisation competition was carried out using a BODIPY labelled Penicillin tracer and unlabelled peptides, for competition to an unmodified PBP protein. Polarisation was measured using a PHERAstar FS by BMG Labtech fitted with a FP 485 520 520 optic module.
Fluorescent BODIPY labelled penicillin at 5 mM in DMSO were diluted to 6.25 nM in binding buffer (10 mM HEPES, pH8, 300 mM NaCl, 2% glycerol). Unmodified PBP were diluted to 2 μM in binding buffer. A two-fold dilution series of unmodified peptide was prepared across 12 wells in binding buffer, with the highest final well concentration being 60 μM, and the lowest concentration being 50 nM. 5 μl of the unmodified peptide dilution series or Carbenicillin were added to 12 wells of a 384-Well NBS™ Low Volume Microplate (Fisher Scientific). 10 μl diluted fluorescent BODIPY labelled penicillin (6.25 nM) were then added to the 12 wells containing the unmodified peptide dilutions. […]
Fluorescence polarisation was measured every 5 minutes for a period of one hour at room temperature. […]
Data were analysed in GraphPad software to derive values for the inhibition constant. […]

E. cloacae (NCTC 13405) = test: MIC assay (10 μl), E. cloacae; format: cell-based; conditions: Enterobacter cloacae, NCTC13405
Description: as §1, §2

[3] = tested on: E. Coli GKCW102 (WT-pore); test: MIC assay, E. coli GKCW102; format: cell-based; conditions: Escherichia coli
Description: as §3, §4, §5, §6, §7

E. Coli GKCW103 (ΔToIC) = test: MIC assay, E. coli GKCW103; format: cell-based; conditions: Escherichia coli
Description: as §3, §4, §5, §6, §7

PBP3 of E. coli [4] = molecular target: T1, PBP3 of E. coli; test: Fluorescence polarisation direct binding assay, PBP 3; conditions: PBP Tested 3 (E. coli); fluorescent ligand
Description: Fluorescence polarisation was carried out using fluorescein-labelled peptides with unmodified PBP protein and measured using a PHERAstar FS by BMG Labtech fitted with a FP 485 520 520 optic module.
Fluorescent peptides at 10 mM in DMSO were diluted to 2.5 nM in binding buffer (10 mM HEPES, pH8, 300 mM NaCl, 2% glycerol). A two-fold dilution series of PBP protein was then prepared across 12 wells in binding buffer, with the highest concentration being 21 μM, and the lowest concentration being 17 nM.
10 μl diluted fluorescent peptide (2.5 nM) was added into 12 wells of a 384-Well NBS™ Low Volume Microplate (Fisher Scientific). 10 μl PBP dilution series was then added to the wells containing the fluorescent peptide, and 5 μl binding buffer was added to bring the total volume to 25 μl and the final concentration of peptide tracer to 1 nM. A control well lacking PBP protein was prepared with a final peptide concentration of 1 nM to a final volume of 25 μl in binding buffer. Fluorescence polarisation was measured every 5 minutes for a period of one hour at room temperature. The gain and focal height were optimised using the control well lacking protein. […]
Data were analysed in GraphPad software to derive values for the dissociation constant. […]
Of note, the direct binding values presented herein utilise a peptide ligand bound to a fluorescence tracer molecule.

S. pneumoniae PBP1a = molecular target: T2, S. pneumoniae PBP1a (S. pneumoniae, UniProt Q04707 37-719, limits assumed); test: fluorescence polarisation direct binding; fluorescein-labelled peptide, PBP titrated
T2 sequence (looked up): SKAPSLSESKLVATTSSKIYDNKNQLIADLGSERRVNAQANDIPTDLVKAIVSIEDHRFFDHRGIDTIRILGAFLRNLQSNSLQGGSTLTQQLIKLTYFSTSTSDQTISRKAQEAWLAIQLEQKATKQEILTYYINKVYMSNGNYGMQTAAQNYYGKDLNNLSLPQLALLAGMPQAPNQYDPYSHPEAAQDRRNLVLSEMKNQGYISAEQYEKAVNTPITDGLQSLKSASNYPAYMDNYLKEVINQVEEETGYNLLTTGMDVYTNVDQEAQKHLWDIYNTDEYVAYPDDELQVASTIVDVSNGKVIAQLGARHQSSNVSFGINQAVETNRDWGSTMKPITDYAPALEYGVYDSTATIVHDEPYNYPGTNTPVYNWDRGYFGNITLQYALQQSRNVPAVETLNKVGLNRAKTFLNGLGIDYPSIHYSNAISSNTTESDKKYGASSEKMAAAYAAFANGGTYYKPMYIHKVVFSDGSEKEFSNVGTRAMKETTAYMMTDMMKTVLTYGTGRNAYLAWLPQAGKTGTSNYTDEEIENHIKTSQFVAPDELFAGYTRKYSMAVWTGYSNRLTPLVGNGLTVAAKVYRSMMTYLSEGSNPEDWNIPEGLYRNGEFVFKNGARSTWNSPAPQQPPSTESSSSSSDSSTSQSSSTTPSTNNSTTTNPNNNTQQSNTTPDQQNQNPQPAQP

PBP3 of P. aeruginosa = molecular target: T3, PBP3 of P. aeruginosa (P. aeruginosa, UniProt G3XD46 50-579, limits assumed); test: as above
T3 construct: also called P. aeruginosa PBP3

PBP3 of E. coli [5] = molecular target: T4, PBP3 of E. coli (E. coli, UniProt P0AD68 57-577, limits assumed); test: as above
T4 construct: also called E. coli PBP3; FtsI
T4 sequence (looked up): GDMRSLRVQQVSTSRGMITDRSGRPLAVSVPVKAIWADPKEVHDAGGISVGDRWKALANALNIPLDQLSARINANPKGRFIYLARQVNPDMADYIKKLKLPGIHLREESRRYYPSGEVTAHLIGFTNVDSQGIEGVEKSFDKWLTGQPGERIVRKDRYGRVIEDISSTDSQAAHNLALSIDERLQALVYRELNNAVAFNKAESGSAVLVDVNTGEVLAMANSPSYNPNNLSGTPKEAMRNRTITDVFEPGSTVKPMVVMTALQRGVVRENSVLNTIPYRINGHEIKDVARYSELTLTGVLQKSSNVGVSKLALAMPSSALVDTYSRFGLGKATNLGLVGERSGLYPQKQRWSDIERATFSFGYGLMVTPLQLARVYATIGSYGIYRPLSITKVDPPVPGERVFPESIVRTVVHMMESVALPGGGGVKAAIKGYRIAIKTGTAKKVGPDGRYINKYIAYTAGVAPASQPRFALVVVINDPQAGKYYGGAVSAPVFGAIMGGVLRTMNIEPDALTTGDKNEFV

T1 sequence (P0AD68 1-577): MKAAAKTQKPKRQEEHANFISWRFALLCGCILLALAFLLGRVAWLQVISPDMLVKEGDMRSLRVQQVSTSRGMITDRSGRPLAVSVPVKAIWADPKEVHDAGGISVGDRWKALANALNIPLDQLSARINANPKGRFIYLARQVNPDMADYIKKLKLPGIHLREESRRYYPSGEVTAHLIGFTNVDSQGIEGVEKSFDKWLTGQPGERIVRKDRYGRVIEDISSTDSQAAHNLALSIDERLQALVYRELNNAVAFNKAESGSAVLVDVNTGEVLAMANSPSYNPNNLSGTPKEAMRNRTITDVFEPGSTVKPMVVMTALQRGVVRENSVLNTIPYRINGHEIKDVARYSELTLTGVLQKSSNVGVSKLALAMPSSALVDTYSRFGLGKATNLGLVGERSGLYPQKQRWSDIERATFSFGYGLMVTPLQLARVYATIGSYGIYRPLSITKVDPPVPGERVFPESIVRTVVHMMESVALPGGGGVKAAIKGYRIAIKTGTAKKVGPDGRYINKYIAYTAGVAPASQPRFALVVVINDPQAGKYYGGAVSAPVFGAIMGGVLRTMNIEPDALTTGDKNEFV
T3 sequence (G3XD46 50-579 limits assumed): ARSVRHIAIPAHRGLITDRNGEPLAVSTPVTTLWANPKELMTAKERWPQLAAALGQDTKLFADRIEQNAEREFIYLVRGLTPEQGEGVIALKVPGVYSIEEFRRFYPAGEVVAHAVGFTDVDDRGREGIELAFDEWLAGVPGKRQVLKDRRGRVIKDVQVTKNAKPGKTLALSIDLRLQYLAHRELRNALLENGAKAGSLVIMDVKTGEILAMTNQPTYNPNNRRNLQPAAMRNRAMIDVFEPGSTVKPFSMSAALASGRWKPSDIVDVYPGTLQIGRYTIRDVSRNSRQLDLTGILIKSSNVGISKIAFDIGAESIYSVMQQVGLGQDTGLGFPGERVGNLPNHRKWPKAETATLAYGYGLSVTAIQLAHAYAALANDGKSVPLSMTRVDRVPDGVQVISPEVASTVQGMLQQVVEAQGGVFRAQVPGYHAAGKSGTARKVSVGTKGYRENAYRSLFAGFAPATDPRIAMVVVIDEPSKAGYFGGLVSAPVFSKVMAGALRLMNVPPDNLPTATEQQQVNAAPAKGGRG

## CC1(C)S[C@@H]2[C@H](NC(=O)C(C(=O)O)c3ccccc3)C(=O)N2[C@H]1C(=O)O (stereo partly drawn) [Carbenicillin, reference compound]
E. coli (ATCC 25922)
  MIC: 16 µg/mL (≈ 42.3 µM)
E. Coli GKCW101 (WT)
  MIC: 14 µg/mL (≈ 37 µM)
[1]
  MIC: 16 µg/mL (≈ 42.3 µM)
PBP3 of E. coli [2]
  Ki: 520 nM
E. cloacae (NCTC 13405)
  MIC: 256 µg/mL (≈ 677 µM)
[3]
  MIC: 0.8 µg/mL (≈ 2.11 µM)
E. Coli GKCW103 (ΔToIC)
  MIC: 2.3 µg/mL (≈ 6.08 µM)

## Cc1cc(C)n2c1C=C1C=CC(CCC(=O)Nc3ccc(OCC(=O)N[C@@H]4C(=O)N5[C@@H]4SC(C)(C)[C@@H]5C(=O)O)cc3)=[N+]1[B-]2(F)F [Bocillin]
PBP3 of E. coli [4]
  Kd: 440 nM

## ACPYTSCPPHTMCA[Sar][Sar][Sar][Sar][Sar][Sar]K-fluorescein (linker 2-7-13 via TATA, Bicyclic peptide) [BCY9378 with fluorescein appended to the C-terminus with a Sar6-Lysine linker]
S. pneumoniae PBP1a
  Kd: 80 nM

B1: BCY12130 with fluorescein appended to the C-terminus with a Sar6-Lysine linker (peptide)
peptide: ACSFPKCPWVEGCA
modifications: Ci, Cii and Ciii cyclised with TATA scaffold; fluorescein appended to the C-terminus with a Sar6-Lysine linker
notes: Bicyclic peptide
PBP3 of P. aeruginosa
  binding result: no binding
PBP3 of E. coli [5]
  Kd: 2000 nM

## ACHDWDYRHLCYWRCA[Sar][Sar][Sar][Sar][Sar][Sar]K-fluorescein (linker 2-11-15 via TATA, Bicyclic peptide) [BCY9383 with fluorescein appended to the C-terminus with a Sar6-Lysine linker]
S. pneumoniae PBP1a
  Kd: 400 nM

— patent US20220281918A1, “PBP BINDING BICYCLIC PEPTIDE LIGANDS” (BicycleTx Limited, priority 2019, published 2022)
